# Experiments:
# K. pneumoniae PPK1 (KP) [1] = molecular target: T1, K. pneumoniae PPK1 (KP) (Klebsiella pneumoniae, UniProt A6TCB5); assay: biochemical; set-up: gene ppk
# PPK1A = molecular target: T2, PPK1A (Acinetobacter baumannii, UniProt A0A0D5YJ41); assay: polyP synthesis kinetics with purified enzyme, varying ATP; format: biochemical
# T2 construct: gene ppk1; AB5075 PPK1A (ABUW_2072), C-terminal His6-tag
# PPK1B = molecular target: T3, PPK1B (Acinetobacter baumannii, UniProt A0A0D5YLD5); assay: as above; format: biochemical
# T3 construct: gene ppk2; AB5075 PPK1B (ABUW_2907), N-terminal His6-tag
# T3 sequence (A0A0D5YLD5 entry or part of it): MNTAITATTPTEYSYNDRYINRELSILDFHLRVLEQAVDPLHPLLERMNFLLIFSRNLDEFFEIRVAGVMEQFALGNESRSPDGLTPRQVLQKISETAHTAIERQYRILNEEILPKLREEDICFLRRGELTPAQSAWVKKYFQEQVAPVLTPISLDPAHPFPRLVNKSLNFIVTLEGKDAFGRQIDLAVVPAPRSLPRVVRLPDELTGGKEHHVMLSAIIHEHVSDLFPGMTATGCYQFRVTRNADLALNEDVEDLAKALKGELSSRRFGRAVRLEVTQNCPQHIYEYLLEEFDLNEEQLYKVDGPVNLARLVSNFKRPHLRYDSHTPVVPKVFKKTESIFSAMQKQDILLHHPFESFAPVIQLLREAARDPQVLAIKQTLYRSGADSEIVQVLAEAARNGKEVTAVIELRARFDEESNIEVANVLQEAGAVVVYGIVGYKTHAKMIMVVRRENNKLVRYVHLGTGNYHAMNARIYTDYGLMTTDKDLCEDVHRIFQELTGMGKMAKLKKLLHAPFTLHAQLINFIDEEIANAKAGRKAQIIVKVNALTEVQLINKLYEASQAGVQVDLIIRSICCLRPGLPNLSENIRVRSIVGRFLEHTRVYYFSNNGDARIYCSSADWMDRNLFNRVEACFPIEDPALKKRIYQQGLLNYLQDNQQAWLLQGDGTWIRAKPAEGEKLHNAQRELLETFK
# K. pneumoniae PPK1 (KP) [2] = molecular target: T1, K. pneumoniae PPK1 (KP); assay: polyP synthesis, toluidine blue A630/[…]; format: biochemical; set-up: gene ppk; codon-optimised gene in pET28a, C-terminal His6-tag, E. coli BL21, Ni-NTA purified
# T1 sequence (A6TCB5 entry or part of it): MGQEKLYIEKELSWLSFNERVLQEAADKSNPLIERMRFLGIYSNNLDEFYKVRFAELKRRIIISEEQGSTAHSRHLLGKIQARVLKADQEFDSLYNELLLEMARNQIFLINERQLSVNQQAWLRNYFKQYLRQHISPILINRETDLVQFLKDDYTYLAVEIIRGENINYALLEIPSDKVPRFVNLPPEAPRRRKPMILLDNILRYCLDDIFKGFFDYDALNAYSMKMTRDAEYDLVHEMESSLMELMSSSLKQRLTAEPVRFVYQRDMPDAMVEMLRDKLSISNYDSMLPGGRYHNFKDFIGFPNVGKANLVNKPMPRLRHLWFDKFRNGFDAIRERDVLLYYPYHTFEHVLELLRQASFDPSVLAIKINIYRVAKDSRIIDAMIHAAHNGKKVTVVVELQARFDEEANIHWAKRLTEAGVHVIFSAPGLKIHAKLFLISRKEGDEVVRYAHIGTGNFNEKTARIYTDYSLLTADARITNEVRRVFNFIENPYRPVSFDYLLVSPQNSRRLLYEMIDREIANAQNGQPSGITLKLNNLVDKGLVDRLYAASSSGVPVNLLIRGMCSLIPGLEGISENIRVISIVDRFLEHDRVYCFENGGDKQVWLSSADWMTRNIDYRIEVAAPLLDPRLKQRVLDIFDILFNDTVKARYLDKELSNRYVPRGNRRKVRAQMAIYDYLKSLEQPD
# T2 sequence (A0A0D5YJ41 entry or part of it): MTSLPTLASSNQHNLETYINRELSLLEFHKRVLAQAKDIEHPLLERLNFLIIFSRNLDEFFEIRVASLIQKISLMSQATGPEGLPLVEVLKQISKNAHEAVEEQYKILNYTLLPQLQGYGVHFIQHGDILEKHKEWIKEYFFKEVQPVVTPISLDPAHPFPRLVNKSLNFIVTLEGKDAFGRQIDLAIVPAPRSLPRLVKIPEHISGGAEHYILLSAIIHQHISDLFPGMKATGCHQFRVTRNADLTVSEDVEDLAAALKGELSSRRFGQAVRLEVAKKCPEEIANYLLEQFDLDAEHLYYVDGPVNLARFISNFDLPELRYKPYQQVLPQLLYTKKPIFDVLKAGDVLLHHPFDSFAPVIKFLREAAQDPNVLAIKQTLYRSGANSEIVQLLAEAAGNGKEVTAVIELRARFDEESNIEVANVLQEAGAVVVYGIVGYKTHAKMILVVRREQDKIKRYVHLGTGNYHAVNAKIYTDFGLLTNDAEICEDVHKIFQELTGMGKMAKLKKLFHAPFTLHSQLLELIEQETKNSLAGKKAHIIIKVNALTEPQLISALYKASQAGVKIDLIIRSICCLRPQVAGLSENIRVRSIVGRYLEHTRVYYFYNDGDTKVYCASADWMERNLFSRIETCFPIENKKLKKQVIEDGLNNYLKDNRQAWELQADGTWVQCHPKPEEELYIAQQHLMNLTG
Compound,Ki (K. pneumoniae PPK1 (KP) [1]),"polyP synthesis kinetics with purified enzyme, varying ATP (PPK1A)","polyP synthesis kinetics with purified enzyme, varying ATP (PPK1B)",IC50 (K. pneumoniae PPK1 (KP) [2])
Nc1ncnc2c1ncn2[C@@H]1O[C@H](COP(=O)(O)OP(=O)(O)OP(=O)(O)O)[C@@H](O)[C@H]1O [ATP],9.33 ± 1.69 mM,–,–,–
O=C1OC2(c3ccccc31)c1ccc(O)c(O)c1Oc1c2ccc(O)c1O [gallein],–,"Both PPK1A and PPK1B were capable of in vitro polyP synthesis, and also exhibited inhibition by gallein","Both PPK1A and PPK1B were capable of in vitro polyP synthesis, and also exhibited inhibition by gallein",0.0165 mM
